A melting point compilation (Tetko et al.; mined from patent text by program, amines drawn as free bases though some values may be those of a salt)

| SMILES | melting point [°C] |
| --- | --- |
| CC(C)CCSc1cc(C(=O)O)cc(N)c1-c1ccccc1 | 124 to 126 |
| CC(C)(C)c1ccc(-c2ccc3nncn3n2)cc1 | 270 to 275 |
| COCOc1ccc(COc2cc3c(cc2-c2cc(C=CC(=O)O)ccc2OC)C(C)(C)CCC3(C)C)cc1 | 106 to 108 |
| Cn1cc(C(=O)O)c2cccc(F)c21 | 225 to 227 |
| Cn1ccc2c3c(c(C(=O)OCc4ccccc4)cc21)C(=O)NC3=O | 186 to 189 |
| CC(C)(C)c1ccc(-c2nn(-c3ccc(F)cc3F)c3c2C2CCC3C2)cc1 (configuration not stated) | 130 to 132 |
| C=C1CCc2c(F)c(F)cc3c(=O)c(C(=O)O)cn1c23 | 220 to 232 |
| CC(C(=O)N(C)C)n1ccc(-c2c(Cl)cccc2Cl)n1 (configuration not stated) | 88 to 90 |
| CN1Cc2c(C#CC3CC3)ncn2-c2cccc(Cl)c2C1=O | 177 to 178 |
| CCn1ncc(C(=O)c2cc(C)c3c(c2C)C(=O)C(C)(C)CS3(=O)=O)c1O | 160 to 163 |
| CCCc1nn(CC)c(CO)c1Cc1ccc(-c2ccccc2NS(=O)(=O)C(F)(F)F)cc1 | 59 to 64 |
| Clc1ccc2nc(-c3cccs3)c(I)n2n1 | 205 to 209 |
| O=c1ccsc2c1[nH]c1ccc(Br)cc12 | 334 to 337 |
| CCOC(=O)CN1C(=O)COc2cc(N)ccc21 | 136 to 137 |
| CC12CCC3C(CC=C4CC(O)CCC43C)C1CC=C2I (configuration not stated) | 169 to 171 |
| CCc1cccc2c1CCN([C@@H]1CN3CCC1CC3)C2=O | > 290 |
| C=CCNc1nc(N(CC=C)CC=C)nc2ccc([N+](=O)[O-])cc12 | 167 to 168 |
| O=C(CCNC(=O)c1ccccc1C(=O)O)NO | 58 to 65 |
| Cc1nc(N)nc(N)c1C=CC(C)(C)c1ccc(Cl)cc1 | 195 to 200 |
| CN1CCC2(CC1)NC(=S)N(c1ccc(C#N)c(C(F)(F)F)c1)C2=N | > 264 |
| CC(=CCc1c(O)c(C)c2c(c1OS(=O)(=O)c1ccc(C)cc1)C(=O)OC2)CCC(=O)O | 148 to 149 |
| CCOc1ccc(C(=O)CCC(=O)Nc2cc(OCc3ccccc3)cc(-c3ccccc3)n2)cc1OCC | 156 to 157 |
| COc1nc(Br)c(C)nc1NS(=O)(=O)c1cccc(Cl)c1Cl | 146 to 148 |

| SMILES | melting point [°C] |
| --- | --- |
| CCc1sc2c(c1C)c(=O)c1cccc(C(=O)O)c1n2Cc1ccc(-c2ccccc2C#N)cc1 | 203 to 205 |
| Cc1nc2n(C)ccn2c(=O)c1CCN1CCC(Nc2nc3ccccc3[nH]2)CC1 | 230 |
| Cc1c(CC(=O)O)c2cc(OCc3csc(-c4ccc(Cl)cc4)n3)ccc2n1Cc1ccc(Cl)cc1 | 145 to 146 |
| Fc1c(F)c(F)c(-c2c3ccccc3c(-c3c(F)c(F)c(F)c(F)c3F)c3ccccc23)c(F)c1F | 337 to 338 |
| Nc1ccc(-n2ncnc2-c2ccccc2)cc1 | 161 to 163 |
| CCOC(=O)Cn1c(CC)nc2c(OCc3ccc(OC)cc3)cccc21 | 112 |
| CC(C)(NC(=O)c1cc2c(n(CC3CCCCC3)c1=O)CCCCCC2)C(=O)O[C@H]1CO[C@H](c2ccccc2)OC1 | 166 to 168 |
| COc1ccccc1-c1cc2[nH]c3ccc(O)cc3c2c2c1C(=O)NC2=O | 216 |
| CCOC(=O)COc1ccc2cc(Br)ccc2c1Cl | 92 to 94 |
| CCOC(=O)C(=NNc1ccccc1)C(C)=O | 75 to 76 |
| CC1(C)[C@@]2(C)CC[C@]1(NCC(=O)N1CCC[C@H]1C#N)C(=O)OC2 | 174 to 177 |
| Cc1ccn(-c2ccc(-c3nc4cccnc4n3-c3ccc(CCNCC(O)COc4ccc(O)cc4)cc3)c(Cl)c2)n1 (configuration not stated) | 87 to 89 |
| COc1c(-c2cc3c(s2)CCC/C3=N\OCc2cccnc2)ccc2c(=O)c(C(=O)O)cn(C3CC3)c12 | 181 to 183 |
| O=C1CCN(c2cc3c(cc2-c2ccccc2F)NC(=O)CC(c2cccc(-n4ccnc4)c2)=N3)CC1 | 230 |
| CC(=O)OCc1ccc(-c2ccccc2)cn1 | 71 to 72 |
| CCCOc1c(-c2ccccc2)nn(C)c1-c1ccccc1 | 56 to 57 |
| O=C1OCC(c2ccccc2)C1CS (configuration not stated) | 41 to 42 |
| COC(=O)c1ccc(-c2cc(C)n(Cc3ccccc3)n2)o1 | 65 to 66 |
| NC(=NCCCc1ccccn1)NCCCc1c[nH]cn1 | 85 to 86 |
| S=c1c2c(ncn2Cc2cccnc2)c2cccnc2n1-c1ccccc1 | 222 to 224 |
| COc1ccc(-c2nc(Sc3ccc(C)cc3)[nH]c2-c2ccc(OC)cc2)cc1 | 181 |
| CCOC(=O)C(=O)Nc1nc2ncn(C)c(=S)n2n1 | 280 to 282 |
| Cc1cc(CC=CCc2cc(C)c(O)c(C(C)(C)C)c2)cc(C(C)(C)C)c1O | 99 to 106 |

| SMILES | melting point [°C] |
| --- | --- |
| CCc1ccc(C(=O)C(=O)O)[nH]1 | 126 to 128 |
| C=C(C)COc1ccc2c(C)cc(=O)oc2c1C(=O)C=Cc1cccnc1 | 110 to 112 |
| Nc1c(OCCCBr)cccc1[N+](=O)[O-] | 88 to 89 |
| Clc1c2ccccc2nc2c1cnn2C1CCCC1 | 97 to 98 |
| O=C1C2CC3=C(CN2C(=O)N1c1ccccc1)N(Cc1ccccc1)CN3 (configuration not stated) | 227 to 229 |
| CC(=O)c1cc(-c2ccncc2)sc1N1CCN(C)CC1 | 115 to 117 |
| CC(C)(O)P(=O)(Oc1ccccc1)Oc1ccccc1 | 70 to 72 |
| C=C=CN(C(=O)c1ccco1)c1c(C)cccc1C | 138 to 141 |
| Cn1cnnc1SCCCCCN1CCN(c2cccc(C(F)(F)F)c2)CC1 | 70 to 76 |
| Fc1c(F)c(F)c(C(Cl)=NNc2ccccc2)c(F)c1F | 117 to 118 |
| CC1=C(C#N)C(c2cccc3nc(-c4ccccc4)sc23)C(C(=O)OC(C)C)=C(C)N1 (configuration not stated) | 218 |
| NC(=O)CN1CC[C@@H](O)C1=O | 195 to 196 |
| CCCCn1cc(C(=O)O)c2ccc(Cl)cc21 | 149 to 151 |
| O=C(COc1cc(-c2ccc([N+](=O)[O-])cc2)nc2ccccc12)N1CCOCC1 | 172 |
| Cc1c[nH]c2c([N+](=O)[O-])ccc(C)c2c1=O | 250 to 262 |
| COc1cc(C=NO)c2oc(-c3ccc(OC)c(F)c3)cc2c1 | 208 to 210 |
| O=C(Cc1ccc(Cl)cc1)N1CCCCC1 | 85 to 85.5 |
| OC(CN1CCC(CCOC(c2ccccc2)c2ccccc2)C(O)C1)c1ccc(F)cc1 (configuration not stated) | 84 to 86 |
| COC(=O)N1CCc2onc(OC)c2C1 | 58 to 60 |
| O=C(Nc1nccs1)c1nc(-c2cccc3ccccc23)[nH]c1-c1ccc(C(F)(F)F)cc1 | 222 to 223 |
| COc1ccc(-c2cc3cc(F)c(F)cc3[nH]2)cc1NC(=S)Nc1cc(Cl)cc(Cl)c1 | 203 to 205 |
| Cn1ncc2[nH]c3ccc(NC(=O)c4ccccc4)cc3c(=O)c21 | > 300 |
| O=C1NCc2c1cc1ccc3c(c1c2-c1cccnc1)OCO3 | 257 to 260 |

The remaining lines, values ahead:

| melting point [°C] | SMILES |
| --- | --- |
| 195 to 197 | COC(=O)c1ccc(=O)n(CCNC(=O)c2cnccn2)c1 |
| 122 to 124 | COc1cccc2c1nc(C)n2C |
| 192 | COC(/C=C/c1cccc(Cl)c1)=N/c1ccc(C(O)c2cncn2Cc2ccc(C#N)cc2)cc1 (configuration not stated) |
| 197 to 199 | COC(=O)CNC(=O)c1ccc(C(=O)NS(=O)(=O)c2ccc(CCNC(=O)C(C)C)cc2)cn1 |
| 64.7 to 65.8 | COc1ccc(C(=O)c2cccc(C)c2Cl)cc1 |
| 107 to 108 | O=C(Cc1ccc(Cl)cc1)OC(c1ccccc1)c1ccccc1 |
| 188 to 194 | CN1CCN(CC/C=C/c2cc3ncc(C#N)c(Nc4ccc(Sc5nccn5C)c(Cl)c4)c3cc2F)CC1 |
| 238 to 239 | c1ccc(-c2nccn3cnnc23)cc1 |
| 168 to 171 | Nc1cc(Cl)cc(Cl)c1C(=O)NCC1CCCCC1 |
| 81 to 82 | CN1C=Cc2ccccc2CC1=O |
| 65 to 66 | Cc1ccc2c(c1)C(c1ccc(C(C)C)cc1)C(C)(C)O2 (configuration not stated) |
| 133 to 136 | N#CCOc1cccc2onc(N)c12 |
| 150 to 155 | CCCCCCn1c(CN2CCC[C@H]2C(=O)O)nc2cc(-c3ccccc3-c3nn[nH]n3)ccc21 |
| 290 | CNc1nc(O)cc(O)n1 |
| 136 to 137 | COc1ccc(CSc2nnc(-c3ccc4[nH]ncc4c3)o2)cc1C(F)(F)F |
| > 260 | O=C1COCC2=C1C(c1ccc(F)c(Br)c1)C1=C(CCS1(=O)=O)N2 (configuration not stated) |
| 130 to 133 | CC(=C(c1ccccc1)c1ccccc1)P(C(C)(C)C)C(C)(C)C |

| melting point [°C] | SMILES |
| --- | --- |
| 193 to 205 | CC(C)C1(C)N=C2c3nc4occc4cc3C(=O)N2C1=O (configuration not stated) |
| > 95 | CCCCc1nn(-c2cc(NC(=O)CC)ccc2Cl)c(C#N)c1Cc1ccc(-c2ccccc2S(=O)(=O)NC(=O)OC(C)(C)C)cc1F |
| 78 | O=C(c1ccccc1O)c1ccccc1Br |
| 165 to 166 | CCOCc1nc2c(N)nc3cccnc3c2n1CC1(O)CCCC1 |
| 256 | Cc1cc(-c2ccc(Cl)cc2)nc(-n2cnc(-c3ncc(S(N)(=O)=O)s3)c2)n1 |
| 241 to 242 | Nc1c(-c2ccc(Br)cc2)nc2ccc(Cl)cc2c1C(=O)O |
| 212 to 214 | Cc1c(N2CC(O)C2)c(F)cc2c(=O)n(N)c(=O)n(C3CC3)c12 |
| 141 to 142 | CN(C)N(C)C(=O)NC1c2ccccc2Oc2ccccc21 |
| 213 to 214 | CCCc1c(OCCCCC(=O)c2ccc3cc(O)c(O)cc3c2)ccc(C(=O)O)c1O |
| 184 to 185 | Cc1c(NC(=O)CC(C)(C)C)cc2c(c1C)OC(C)(C)C2O (configuration not stated) |
| 173 | Cc1c(-c2ccc(NC(=O)NC(C)(C)C)cc2)nc2n1CCc1ccccc1C2OC1CCN(C)CC1 (configuration not stated) |
| 246 to 247 | NC1CN(c2cc3c(cc2F)c(=O)c(C(=O)O)cn3C2CC2)C1 |
| 70 to 72 | BrCCCCOc1ccc(OCc2ccccc2)cc1 |
| 51 to 54 | CC(O)=C(C#N)C(=O)c1ccc(F)c(F)c1 |
| 169 to 170 | Cc1ccc2c(c1)C(CCO)N(c1cccc([N+](=O)[O-])c1)N(C)C2=O (configuration not stated) |
| 118 to 123 | Cc1nsc(Br)c1S(=O)(=O)NC(C)(C)C |
